In patent publication EP0717746B1, “PHOSPHINIC ACID DERIVATIVES WITH ANTI-HYPER GLYCEMIC AND/OR ANTI-OBESITY ACTIVITY” (SMITHKLINE BEECHAM PLC, priority 1993, dated 1995) one finds EC50 data, which are given here for two molecules.

The experiment deals with T1, human β3-adrenoceptor (Homo sapiens, UniProt P13945).
T1 construct: expressed in transfected cells; host or cells: CHO cells (stably transfected subclones); plasma membranes prepared
In words: β3-Adrenoceptor-mediated adenylyl cyclase activity in CHO cell plasma membranes. It counts as biochemical. Conditions: concentration of agonist producing 50 % activation of adenylyl cyclase; CHO cell plasma membranes transfected with the human β3-adrenoceptor; cAMP produced over 20 minutes. As to the method: Subclones of CHO cells were stably transfected with each of the human β1, β2 and β3-adrenoceptors^1. Cells were then disrupted by immersion in ice-cold lysis buffer (10 mM TRIS, 2mM EDTA , pH 7.4) containing protease inhibitors leupeptin and benzamidine (5 µg / ml) and soyabean trypsin inhibitor (10 µg / ml). Membranes were prepared by the method of Bouvier et. al.^2 and stored in 1 ml aliquots in liquid N2 for future use.
Adenylyl cyclase activity was assayed by the method of Kirkham et. al.^3 by the addition of 40 µl (70 -80 µg protein) to the incubation medium of the above CHO cell plasma membranes transfected with the human β3-adrenoceptor . cAMP produced over 20 minutes was separated from ATP by the method of Salomon et al.^4. Agonist EC50 values and intrinsic activities were expressed as the concentration of agonist producing 50 % activation of adenylyl cyclase and the maximum response produced by each agonist relative to that produced by (-) isoprenaline respectively.

T1 sequence (P13945 whole entry): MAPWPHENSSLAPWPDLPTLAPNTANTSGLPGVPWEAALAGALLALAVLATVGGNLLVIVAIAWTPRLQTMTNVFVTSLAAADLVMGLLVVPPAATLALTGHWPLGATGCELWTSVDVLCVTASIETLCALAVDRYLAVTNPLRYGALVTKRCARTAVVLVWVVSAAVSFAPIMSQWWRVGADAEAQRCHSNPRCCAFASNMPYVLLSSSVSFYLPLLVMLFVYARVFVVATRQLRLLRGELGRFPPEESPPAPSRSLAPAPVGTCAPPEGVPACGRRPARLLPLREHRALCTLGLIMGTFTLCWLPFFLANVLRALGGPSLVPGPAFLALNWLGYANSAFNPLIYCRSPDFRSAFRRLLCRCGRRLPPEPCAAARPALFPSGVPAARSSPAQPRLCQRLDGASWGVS

In the case of `CCOP(=O)(CC)COc1ccc(CC(C)NC[C@H](O)c2ccc(O)c(O)c2)cc1` (some centres unmarked) [Example 2, (RR RS) Ethyl 4-[2-[2-(3,4-dihydroxyphenyl)-2-hydroxyethylamino]propyl]phenoxymethylethylphosphinate], the EC50 came to 0.46 µM.
The molecule `CC(Cc1ccc(OCP(=O)(O)c2ccccc2)cc1)NC[C@H](O)c1ccc(O)c(O)c1` (some centres unmarked) [Example 3, (RR RS) 4-[2-[2-(3,4-Dihydroxyphenyl)-2-hydroxyethylamino]propyl]phenoxymethyl phenylphosphinic acid.] displayed an EC50 of 0.54 µM.
